Test results published in publication PMC3468358, “Clinical, virological and biochemical evidence supporting the association of HIV-1 reverse transcriptase polymorphism R284K and thymidine analogue resistance mutations M41L, L210W and T215Y in patients failing tenofovir/emtricitabine therapy” (Retrovirology, 2012).
Read-outs that look alike come from different tables or passages of the source.

How the values were obtained:
[1] = target: T1, HIV-1 RT M41L/L210W/T215Y/R284K (Human immunodeficiency virus type 1 group M subtype B, UniProt P03366, L809W/M640L/R883K/T814Y); experiment: Inhibition constants under steady-state nucleotide incorporation conditions; assay type: biochemical
T1 construct: His6 (C); made in house; host or cells: E. coli XL1 Blue
Procedure: (§1) RTs were expressed in E. coli XL1 Blue and purified as p66/p51 heterodimers by ionic exchange, followed by immobilized metal affinity chromatography on Ni^2+-nitriloacetic acid-agarose. The p66 subunit was obtained with a His6 tag at its C-terminal end to facilitate its purification by metal affinity chromatography. Purity of the enzymes was assessed by SDS-polyacrylamide gel electrophoresis and RT concentrations were determined by active site titration as described.
(§2) Nucleotide incorporation reactions under steady-state conditions were carried out as previously described. However, in the preincubation buffer, active RT and template-primers D38/25PGA or D38T/25PGA were present at concentrations of 7–20 nM and 60 nM, respectively. Elongation rates were determined with dTTP concentrations ranging from 0.05 to 20 μM or with dATP concentrations ranging from 12 nM to 10 μM, using reaction volumes of 20 μl. Catalytic constants kcat and Km were determined after fitting the elongation data to the Michaelis–Menten equation as described. Inhibition constants (Ki) for AZTTP and tenofovir-DP were determined under the conditions used for obtaining the catalytic constants of dTTP and dATP incorporation, respectively. In order to distinguish between dTTP and AZTTP, elongation reactions were carried out under conditions that allowed the incorporation of two nucleotides (i.e. T at position +1 and A at position +2). For this purpose dATP was supplied at 1 μM in all assays. The competition between tenofovir-DP and dATP was analyzed with template-primer D38T/25PGA. Assays were carried out with variable concentrations of dATP (as indicated above) and 2 μM dTTP to facilitate further extension of the primer when the inhibitor was not incorporated at position +1 of the DNA primer. Data were analyzed by using Lineweaver-Burk plots. Nucleotide incorporation reactions under pre-steady-state conditions were carried out with template-primer D38/25PGA, as described.

[2] = target: T2, HIV-1 RT M41L/L210W/T215Y (Human immunodeficiency virus type 1 group M subtype B, UniProt P03366, L809W/M640L/T814Y); experiment: as above; assay type: biochemical
T2 construct: His6 (C); made in house; host or cells: E. coli XL1 Blue
Procedure: as §1, §2

WT HIV-1 RT (BH10) [3] = target: T3, WT HIV-1 RT (BH10) (Human immunodeficiency virus type 1 group M subtype B, UniProt P03366); experiment: as above; assay type: biochemical
T3 construct: His6 (C); made in house; host or cells: E. coli XL1 Blue
Procedure: as §1, §2

HIV-1 RT R284K = target: T4, HIV-1 RT R284K (Human immunodeficiency virus type 1 group M subtype B, UniProt P03366, R883K); experiment: Kinetics of ATP-dependent excision from DNA/DNA template-primers (single turnover); assay type: biochemical; details: R284K RT 210 nM, 3.2 mM ATP, terminated 26-mer primer on 38-nt DNA template 30 nM
T4 construct: His6 (C); made in house; host or cells: E. coli XL1 Blue
Procedure: (§3) The primer 25PGA was blocked at its 3´ end with d4TTP using terminal deoxynucleotidyltransferase (Roche), and excess nucleotides were eliminated by repeated passage through a mini Quick Spin column (Roche). The blocked primer was then labeled with [γ-^32P]ATP and T4 polynucleotide kinase and annealed to the DNA template D38, in order to obtain the template-primer D38/25PGA^d4T, used in the excision reactions. […] For this purpose, we preincubated the template-primer D38/^32P]25PGA (4.6 μM) with HIV-1BH10 RT (4 μM) in 65 μl of 50 mM Hepes pH 7.0 buffer, containing 15 mM NaCl, 15 mM magnesium acetate, 130 mM potassium acetate, 1 mM dithiothreitol, and 5% polyethylene glycol for 10 minutes at 37°C. Then, 35 μl of 6 mM AZTTP (diluted in the preincubation buffer) were added and incubated for another 30 minutes at 37°C to ensure that the primer was blocked completely. The RT was inactivated by heating the mixture for 10 minutes at 90°C. After slowly cooling the sample at room temperature, it was passaged several times through a mini Quick Spin column (Roche) to eliminate the free AZTTP. […] The excision of d4T monophosphate (d4TMP) from D38/25PGA^d4T was determined under single turnover conditions, as previously described.

[4] = target: T1, HIV-1 RT M41L/L210W/T215Y/R284K; assay type: biochemical; details: M41L/L210W/T215Y/R284K RT 210 nM, 3.2 mM ATP, terminated 26-mer primer on 38-nt DNA template 30 nM
Procedure: as §3

[5] = target: T2, HIV-1 RT M41L/L210W/T215Y; assay type: biochemical; details: M41L/L210W/T215Y RT 210 nM, 3.2 mM ATP, terminated 26-mer primer on 38-nt DNA template 30 nM
Procedure: as §3

WT HIV-1 RT = target: T5, WT HIV-1 RT (Human immunodeficiency virus type 1 group M subtype B, UniProt P03366); assay type: biochemical
T5 construct: His6 (C); made in house; host or cells: E. coli XL1 Blue
Procedure: as §3

[6] = system: HIV-1 construct with RT R284K; experiment: Phenotypic drug susceptibility of recombinant HIV-1 in MT-4 cells (tetrazolium-based colorimetric method); assay type: cell-based
Procedure: (§4) Site-directed mutagenesis was carried out with the Quik-Change Site-Directed Mutagenesis kit (Stratagene) by following the manufacturer’s instructions, and using plasmids p66RTB [64] or p66RTB(LY) as templates. The plasmid p66RTB contains the nucleotide sequence encoding for the 66-kDa subunit of HIV-1BH10 RT, and p66RTB(LY) encodes a p66 derivative with thymidine analogue resistance mutations M41L and T215Y. […] All introduced mutations were confirmed by DNA sequencing. Recombinant HIV-1 was obtained as previously described. […] MT-4 cells were used to propagate the recombinant virus. The nucleotide sequence of the RT-coding region was fully determined in order to check for reversions or undesired mutations. MT-4 cells and the deleted HXB2-D clone were obtained from the AIDS Reagent Program (Medical Research Council).
(§5) Viable cells at different drug concentrations were quantified with a tetrazolium-based colorimetric method. Replication kinetics of wild-type and mutant viruses were assayed by infecting peripheral blood mononuclear cells (PBMCs) (mixed from two healthy donors), previously stimulated with phytohemagglutinin and interleukin 2 [26]. In these assays, viral replication rates were obtained from the amounts of HIV-1 p24^Gag antigen produced during the exponential phase of viral growth, as described previously. Growth competition assays in MT-4 cells were carried out as previously described, in the absence and in the presence of tenofovir disoproxil fumarate at concentrations ranging from 5 to 80 nM. A multiplicity of infection of 0.001 was used and competing viruses were mixed at a 50:50 ratio. RT inhibitors were obtained from the NIH AIDS Research and Reference Reagent Program.

[7] = system: HIV-1 construct with RT M41L/L210W/T215Y; experiment: as above; assay type: cell-based
Procedure: as §4, §5

[8] = system: wild-type HXB2 virus carrying the RT sequence of BH10; experiment: as above; assay type: cell-based; details: average ± SD of at least three tests
Procedure: as §4, §5

[9] = system: HIV-1 construct with RT M41L/L210W/T215Y/R284K; experiment: as above; assay type: cell-based
Procedure: as §4, §5

[10] = target: T1, HIV-1 RT M41L/L210W/T215Y/R284K; experiment: Steady-state kinetics of nucleotide incorporation; assay type: biochemical; details: D38/25PGA for dTTP, D38T/25PGA for dATP
Procedure: as §1, §2

[11] = target: T2, HIV-1 RT M41L/L210W/T215Y; experiment: Steady-state kinetics of nucleotide incorporation; assay type: biochemical; details: D38/25PGA for dTTP, D38T/25PGA for dATP
Procedure: as §1, §2

WT HIV-1 RT (BH10) [12] = target: T3, WT HIV-1 RT (BH10); experiment: Steady-state kinetics of nucleotide incorporation; assay type: biochemical; details: D38/25PGA for dTTP, D38T/25PGA for dATP
Procedure: as §1, §2

[13] = target: T1, HIV-1 RT M41L/L210W/T215Y/R284K; experiment: Single-nucleotide incorporation under pre-steady-state conditions; assay type: biochemical; details: D38/25PGA, 80 μM dTTP
Procedure: as §2, with “Nucleotide incorporation reactions under pre-steady-state conditions were carried out with template-primer D38/25PGA, as described.” left out

[14] = target: T2, HIV-1 RT M41L/L210W/T215Y; experiment: as above; assay type: biochemical; details: D38/25PGA, 80 μM dTTP
Procedure: as §2, with “Nucleotide incorporation reactions under pre-steady-state conditions were carried out with template-primer D38/25PGA, as described.” left out

[15] = Human immunodeficiency virus 1, MT4, average ± SD of at least three tests
[16] = Human immunodeficiency virus 1, HXB2, MT4, WT virus

Compound: CC(Cn1cnc2c(N)ncnc21)OCP(=O)(O)OP(=O)(O)OP(=O)(O)O (stereo in doubt) [Tenofovir-DP, tenofovir diphosphate]
- Ki ([1]; M41L/L210W/T215Y/R284K RT, competition with dATP, template-primer D38T/25PGA, read-out: Ki(Tenofovir-DP)): 2540 ± 550 nM
- Ki ([2]; M41L/L210W/T215Y RT, competition with dATP, template-primer D38T/25PGA, read-out: Ki(Tenofovir-DP)): 2630 ± 640 nM
- Ki (WT HIV-1 RT (BH10) [3]; competition with dATP, template-primer D38T/25PGA, read-out: Ki(Tenofovir-DP)): 3590 ± 260 nM

Compound: Cc1cn([C@H]2C[C@H](N=[N+]=[N-])[C@@H](COP(=O)(O)O)O2)c(=O)[nH]c1=O [AZTMP]
- kobs of ATP-dependent excision reaction (HIV-1 RT R284K): 0.00242 ± 0.000122 min⁻¹
- kobs of ATP-dependent excision reaction [4]: 0.0364 ± 0.00308 min⁻¹
- kobs of ATP-dependent excision reaction [5]: 0.0469 ± 0.00169 min⁻¹
- kobs of ATP-dependent excision reaction (WT HIV-1 RT; WT RT 210 nM, 3.2 mM ATP, terminated 26-mer primer on 38-nt DNA template 30 nM): 0.00282 ± 0.000148 min⁻¹

Compound: Cc1cn([C@H]2C[C@H](N=[N+]=[N-])[C@@H](CO[P@](=O)(O)O[P@](=O)(O)OP(=O)(O)O)O2)c(=O)[nH]c1=O [AZTTP]
- Ki [1]: 2320 ± 740 nM
- Ki [2]: 2180 ± 170 nM
- Ki (WT HIV-1 RT (BH10) [3]; competition with dTTP, template-primer D38/25PGA, read-out: Ki(AZTTP)): 2100 ± 380 nM

Compound: Nc1nc(=O)n([C@@H]2CS[C@H](CO)O2)cc1F [Emtricitabine]
- fold increase in IC50 relative to the wild-type HXB2 virus control [6]: 0.7
- IC50 [6, 15]: 104 ± 81.5 nM
- fold increase in IC50 relative to the wild-type HXB2 virus control [7]: 1.6
- IC50 [7, 15]: 227 ± 113 nM
- IC50 [8, 16]: 144 ± 69.9 nM
- fold increase in IC50 relative to the wild-type HXB2 virus control [9]: 2.0
- IC50 [9, 15]: 295 ± 93.7 nM

Compound: CC(C)OC(=O)OCOP(=O)(CO[C@H](C)Cn1cnc2c(N)ncnc21)OCOC(=O)OC(C)C.O=C(O)/C=C/C(=O)O [Tenofovir, tenofovir disoproxil fumarate]
- fold increase in IC50 relative to the wild-type HXB2 virus control [6]: 1.8
- IC50 ([6]; R284K virus, average ± SD of at least three tests): 12.1 ± 5.3 nM
- fold increase in IC50 relative to the wild-type HXB2 virus control [7]: 1.6
- IC50 ([7]; M41L/L210W/T215Y virus, average ± SD of at least three tests): 11 ± 4.6 nM
- IC50 ([8]; WT virus): 6.7 ± 2.2 nM
- fold increase in IC50 relative to the wild-type HXB2 virus control [9]: 2.7
- IC50 ([9]; M41L/L210W/T215Y/R284K virus, average ± SD of at least three tests): 18.1 ± 4.4 nM

Compound: Cc1cn([C@H]2C=C[C@@H](CO)O2)c(=O)[nH]c1=O [d4T, 2´,3´-didehydro-2´,3´-dideoxythymidine]
- fold increase in IC50 relative to the wild-type HXB2 virus control [6]: 0.5
- IC50 [6, 15]: 130 ± 24.8 nM
- fold increase in IC50 relative to the wild-type HXB2 virus control [7]: 0.8
- IC50 [7, 15]: 217 ± 75.5 nM
- IC50 [8, 16]: 276 ± 90.5 nM
- fold increase in IC50 relative to the wild-type HXB2 virus control [9]: 1.0
- IC50 [9, 15]: 287 ± 84.5 nM

Compound: Cc1cn([C@H]2C=C[C@@H](COP(=O)(O)O)O2)c(=O)[nH]c1=O [d4TMP, d4T monophosphate]
- kobs of ATP-dependent excision reaction (HIV-1 RT R284K): 0.00262 ± 0.000142 min⁻¹
- kobs of ATP-dependent excision reaction [4]: 0.037 ± 0.00229 min⁻¹
- kobs of ATP-dependent excision reaction [5]: 0.0372 ± 0.00158 min⁻¹
- kobs of ATP-dependent excision reaction (WT HIV-1 RT): 0.00337 ± 0.000193 min⁻¹

Compound: Nc1ncnc2c1ncn2[C@H]1C[C@H](O)[C@@H](COP(=O)(O)OP(=O)(O)OP(=O)(O)O)O1 [dATP]
- Km [10]: 0.0159 ± 0.0025 µM
- kcat [10]: 0.1682 ± 0.0245 s⁻¹
- Km [11]: 0.0321 ± 0.0096 µM
- kcat [11]: 0.095 ± 0.0145 s⁻¹
- Km (WT HIV-1 RT (BH10) [12]): 0.0258 ± 0.0067 µM
- kcat (WT HIV-1 RT (BH10) [12]): 0.0645 ± 0.0165 s⁻¹

Compound: Cc1cn([C@H]2C[C@H](O)[C@@H](COP(=O)(O)OP(=O)(O)OP(=O)(O)O)O2)c(=O)[nH]c1=O [dTTP]
- Km [10]: 0.184 ± 0.0061 µM
- kcat [10]: 0.0943 ± 0.00383 s⁻¹
- Km [11]: 0.117 ± 0.0219 µM
- kcat [11]: 0.0588 ± 0.0015 s⁻¹
- Km (WT HIV-1 RT (BH10) [12]): 0.108 ± 0.0129 µM
- kcat (WT HIV-1 RT (BH10) [12]): 0.0523 ± 0.00917 s⁻¹
- nucleotide incorporation rate (kobs) [13]: 38.8 ± 9.4 s⁻¹
- nucleotide incorporation rate (kobs) [14]: 21.5 ± 4.4 s⁻¹
